In patent publication US11000033B2, “Ketone or oxime compound, and herbicide” (NISSAN CHEMICAL CORPORATION, priority 2014, dated 2021):

What was measured:
Assay type in all cases: in vivo
[1] = test system: directly sowed rice plant; assay: Test Example 3: effect on crop by foliage application, Wagner pot (symbol b); conditions: application herbicide amount 320 g/ha
Method in brief: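 Wagner pot (1/10000 are), alluvial soil, submerged 0.1–0.5 cm; sown E. crus-galli var. crus-galli, L. chinensis, C. difformis, rice; greenhouse 25–30 °C.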

Digitaria ciliaris [2] = assay: Test Example 4: herbicidal effect by soil treatment (symbol F); conditions: 320 g/ha
Method in brief: (§1)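 Seeds were sown in sterilized diluvial soil, covered with about 1.5 cm of soil, and the soil surface was sprayed with a water-diluted emulsion of the compound at a predetermined rate. Plants grew in a greenhouse at 25° C. to 30° C.; effects were scored visually 3 weeks after application.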

[3] = test system: Echinochloa crus-galli var. crus-galli; assay: Test Example 4: herbicidal effect by soil treatment (symbol H); conditions: 320 g/ha
Method in brief: as §1

Alopecurus myosuroides = assay: Test Example 4: herbicidal effect by soil treatment (symbol J); conditions: 320 g/ha
Method in brief: as §1

Lolium multiflorum Lam. = assay: Test Example 4: herbicidal effect by soil treatment (symbol K); conditions: 320 g/ha
Method in brief: as §1

Stellaria media [4] = assay: Test Example 4: herbicidal effect by soil treatment (symbol P); conditions: 320 g/ha
Method in brief: as §1

Veronica persica [5] = assay: Test Example 4: herbicidal effect by soil treatment (symbol R); conditions: 320 g/ha
Method in brief: as §1

corn = assay: Test Example 4: effect on crop by soil treatment (symbol c); conditions: 320 g/ha
Method in brief: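 Greenhouse culture at 25° C. to 30° C. followed sowing of seed in spots on sterilized diluvial soil with a soil cover close to 1.5 cm thick.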

soybean = assay: Test Example 4: effect on crop by soil treatment (symbol d); conditions: 320 g/ha
Method in brief: (§2)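 Crop seeds, among them rice, wheat, beet and rapeseed, were sown in sterilized diluvial soil and covered with about 1.5 cm of soil. Boxes were kept in a greenhouse at 25° C. to 30° C. for plant growth.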

rice = assay: Test Example 4: effect on crop by soil treatment (symbol b); conditions: 320 g/ha
Method in brief: as §2

beet [6] = assay: Test Example 4: effect on crop by soil treatment (symbol f); conditions: 320 g/ha
Method in brief: as §2

rapeseed = assay: Test Example 4: effect on crop by soil treatment (symbol g); conditions: 320 g/ha
Method in brief: as §2

Digitaria ciliaris [7] = assay: Test Example 5: herbicidal effect by foliage application, plastic box (symbol F); conditions: 320 g/ha, 3 weeks after application
Method in brief: (§3)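 Visual herbicidal score, taken three weeks post-application, of seedlings sprayed on the foliage with water-diluted emulsion at a predetermined amount; plants were 14 days old, greenhouse-raised at 25° C. to 30° C.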

Setaria viridis = assay: Test Example 5: herbicidal effect by foliage application, plastic box (symbol G); conditions: 320 g/ha, 3 weeks after application
Method in brief: as §3

Avena fatua = assay: Test Example 5: herbicidal effect by foliage application, plastic box (symbol I); conditions: 320 g/ha, 3 weeks after application
Method in brief: as §3

Apera spica-venti = assay: Test Example 5: herbicidal effect by foliage application, plastic box (symbol L); conditions: 320 g/ha, 3 weeks after application
Method in brief: as §3

Abutilon theophrasti = assay: Test Example 5: herbicidal effect by foliage application, plastic box (symbol M); conditions: 320 g/ha, 3 weeks after application
Method in brief: as §3

Chenopodium album = assay: Test Example 5: herbicidal effect by foliage application, plastic box (symbol O); conditions: 320 g/ha, 3 weeks after application
Method in brief: as §3

Stellaria media [8] = assay: Test Example 5: herbicidal effect by foliage application, plastic box (symbol P); conditions: 320 g/ha, 3 weeks after application
Method in brief: as §3

Veronica persica [9] = assay: Test Example 5: herbicidal effect by foliage application, plastic box (symbol R); conditions: 320 g/ha, 3 weeks after application
Method in brief: as §3

rice plant = assay: Test Example 5: effect on crop by foliage application, plastic box (symbol b); conditions: 320 g/ha, 3 weeks after application
Method in brief: (§4)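 Foliage-application test plants come from spot sowing in sterilized diluvial soil under a soil layer of about 1.5 cm, grown at 25° C. to 30° C. in a greenhouse.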

wheat = assay: Test Example 5: effect on crop by foliage application, plastic box (symbol e); conditions: 320 g/ha, 3 weeks after application
Method in brief: as §4

beet [10] = assay: Test Example 5: effect on crop by foliage application, plastic box (symbol f); conditions: 320 g/ha, 3 weeks after application
Method in brief: as §4

CON=C(C)CC1CC(OC(=O)C#C[Si](C)(C)C)=C(c2c(C)cc(C)cc2C)C1=O (centres unmarked) [1-096]
effect on crop b (directly sowed rice plant), grade 0-5 [1]: 5 (Herbicidal ratio of 90% or more (almost completely withered))
F: Digitaria ciliaris, herbicidal effect grade (Digitaria ciliaris [2]): 5 (Herbicidal ratio of 90% or more (almost completely withered))
H: Echinochloa crus-galli var. crus-galli, herbicidal effect grade [3]: 4 (Herbicidal ratio of 70% or higher and lower than 90%)
J: Alopecurus myosuroides, herbicidal effect grade (Alopecurus myosuroides): 5 (Herbicidal ratio of 90% or more (almost completely withered))
K: Lolium multiflorum Lam., herbicidal effect grade (Lolium multiflorum Lam.): 5 (Herbicidal ratio of 90% or more (almost completely withered))
P: Stellaria media, herbicidal effect grade (Stellaria media [4]): 0 (Herbicidal ratio of 5% or lower (almost no effect))
R: Veronica persica, herbicidal effect grade (Veronica persica [5]): 0 (Herbicidal ratio of 5% or lower (almost no effect))
c: corn, effect grade on crop (corn): 4 (Herbicidal ratio of 70% or higher and lower than 90%)
d: soybean, effect grade on crop (soybean): 1 (Herbicidal ratio of 5% or higher and lower than 20%)
b: directly sowed rice plant, effect grade on crop (rice): 5 (Herbicidal ratio of 90% or more (almost completely withered))
f: beet, effect grade on crop (beet [6]): 0 (Herbicidal ratio of 5% or lower (almost no effect))
g: rapeseed, effect grade on crop (rapeseed): 3 (Herbicidal ratio of 40% or higher and lower than 70%)
F: Digitaria ciliaris, herbicidal effect (criteria 0-5) (Digitaria ciliaris [7]): 5 (Herbicidal ratio of 90% or more (almost completely withered))
G: Setaria viridis, herbicidal effect (criteria 0-5) (Setaria viridis): 5 (Herbicidal ratio of 90% or more (almost completely withered))
I: Avena fatua, herbicidal effect (criteria 0-5) (Avena fatua): 5 (Herbicidal ratio of 90% or more (almost completely withered))
L: Apera spica-venti, herbicidal effect (criteria 0-5) (Apera spica-venti): 5 (Herbicidal ratio of 90% or more (almost completely withered))
M: Abutilon theophrasti, herbicidal effect (criteria 0-5) (Abutilon theophrasti): 4 (Herbicidal ratio of 70% or higher and lower than 90%)
O: Chenopodium album, herbicidal effect (criteria 0-5) (Chenopodium album): 2 (Herbicidal ratio of 20% or higher and lower than 40%)
P: Stellaria media, herbicidal effect (criteria 0-5) (Stellaria media [8]): 2 (Herbicidal ratio of 20% or higher and lower than 40%)
R: Veronica persica, herbicidal effect (criteria 0-5) (Veronica persica [9]): 3 (Herbicidal ratio of 40% or higher and lower than 70%)
b: directly sowed rice plant, effect on crop (criteria 0-5) (rice plant): 5 (Herbicidal ratio of 90% or more (almost completely withered))
e: wheat, effect on crop (criteria 0-5) (wheat): 5 (Herbicidal ratio of 90% or more (almost completely withered))
f: beet, effect on crop (criteria 0-5) (beet [10]): 0 (Herbicidal ratio of 5% or lower (almost no effect))
